Reference: patent US10413559B2, “Method for treating demyelinating disease” (OCHANOMIZU UNIVERSITY, priority 2013, dated 2019)

Experiments:
[1] = tested on: demyelination model mice (0.2% cuprizone); test: Myelin level by Black Gold staining in cuprizone demyelination model mice (Example 1); assay type: in vivo, C57BL/6 mice; details: intraperitoneal 40 μg/200 μl saline/day for 5 weeks, FIG. 2
Procedure: 10-week-old male C57BL/6 mice were fed with a mash feed containing 0.2% cuprizone for five weeks until the most significant demyelination occurred, so as to produce demyelination model mice. cPA and carba-cPA (cPA) powders were each dissolved in a saline, and the obtained solutions were each administered intraperitoneally at a dose of 40 μg/200 μl saline/day to the mice every day for 5 weeks. On the other hand, to negative control mice, a saline (200 μl/day) was intraperitoneally administered in the same manner as described above. The mice, to which the test compound had been administered, were subjected to perfusion fixation with 4% paraformaldehyde, and sections to be used for frozen tissue staining (30 μm) were then prepared in a cryostat (FIG. 1). The level of myelin in each mouse was measured by Black Gold staining, and the demyelination level was then measured based on the stained level (FIG. 2).

[2] = tested on: demyelination model mice (0.2% cuprizone), corpus callosum; test: Histological staining (Black Gold II) of corpus callosum and evaluation of demyelination (Example 2); assay type: in vivo, C57BL/6j mice; details: intraperitoneal 1.6 mg/kg/day for 5 weeks, FIG. 3, FIG. 4
Source text: 10-week-old male C57BL/6j mice (Tokyo Laboratory Animals Science Co., Ltd., Tokyo, Japan) were fed by the discretionary intake of a mash feed (CLEA Japan, Inc.) that contained 0.2% cuprizone (biscyclohexanone oxalyl hydrazone; Merck KGaA, Darmstadt, Germany) for 5 weeks until demyelination progressed most, so as to produce demyelination model mice involving demyelination caused by oligodendrocyte-specific cell death. To obtain tissues to be used for histological analysis, a mouse was subjected to perfusion fixation through the heart with 4% paraformaldehyde, and the resulting brain tissues were then excised from the mouse. Thereafter, the tissues were immobilized and infiltrated with 30% sucrose. Thereafter, a frozen tissue block was prepared and was then sliced in a cryostat. The cPA used in the experiment was the same cPA (16:0) as that used in Example 1, and the carba-cPA was 2 ccPA (16:1). The cPA and 2 ccPA were chemically purified (Biochimica et Biophysica Acta, Emi Nozaki 2011), and were then dissolved in a 0.9% saline. […] For the analysis of the level of myelin, using Image J 1.46r software, the stained level in the corpus callosum area was measured, and the demyelination level was then evaluated, while setting the control as 100%.

[3] = tested on: demyelination model mice (0.2% cuprizone), corpus callosum; test: Electron microscope observation of myelin structure in corpus callosum; assay type: in vivo, C57BL/6j mice; details: intraperitoneal 1.6 mg/kg/day for 5 weeks, FIG. 5
Source text: 10-week-old male C57BL/6j mice (Tokyo Laboratory Animals Science Co., Ltd., Tokyo, Japan) were fed by the discretionary intake of a mash feed (CLEA Japan, Inc.) that contained 0.2% cuprizone (biscyclohexanone oxalyl hydrazone; Merck KGaA, Darmstadt, Germany) for 5 weeks until demyelination progressed most, so as to produce demyelination model mice involving demyelination caused by oligodendrocyte-specific cell death.
The cPA used in the experiment was the same cPA (16:0) as that used in Example 1, and the carba-cPA was 2 ccPA (16:1). The cPA and 2 ccPA were chemically purified (Biochimica et Biophysica Acta, Emi Nozaki 2011), and were then dissolved in a 0.9% saline. The cPA and 2 ccPA were continuously administered to mice via intraperitoneal administration for 5 weeks (1.6 mg/kg/day), at the same time with administration of cuprizone. Control mice were fed with a normal mash feed, and a normal saline was continuously administered to the control mice via intraperitoneal administration for 5 weeks.
Five weeks after administration of cuprizone, mice were subjected to perfusion fixation with 4% paraformaldehyde, and the brain was then collected from each mouse. Thereafter, corpus callosum tissues were removed from the brain, were then pre-fixed with 2.5% glutaraldehyde fixative, and were then washed with a 0.1 M cacodylate buffer. […]

CCCCCCCCCCCCCCCC(=O)OCC1COP(=O)(O)O1 (stereo not drawn) [cPA] was tested, and the “level of myelin (Black Gold staining) versus control mouse” value [1] was “higher than the level of myelin in a control mouse”, the “demyelination level in corpus callosum (Black Gold II staining)” value [2] was “demyelination is suppressed” and the “demyelination by electron microscope observation of myelin structure” value [3] was “demyelination is suppressed”.
